Measurements taken from patent publication US20120094995A1, “2-AZA-BICYCLO[2.2.1]HEPTANE COMPOUNDS AND USES THEREOF” (ASTRAZENECA AB, priority 2009, published 2012).
pIC50: −log10 of the molar value.

Target: T1, human GlyT1b (Homo sapiens, UniProt P48067)
T1 construct: expressed in transfected cells
T1 sequence (P48067 1-652 isoform P48067-3): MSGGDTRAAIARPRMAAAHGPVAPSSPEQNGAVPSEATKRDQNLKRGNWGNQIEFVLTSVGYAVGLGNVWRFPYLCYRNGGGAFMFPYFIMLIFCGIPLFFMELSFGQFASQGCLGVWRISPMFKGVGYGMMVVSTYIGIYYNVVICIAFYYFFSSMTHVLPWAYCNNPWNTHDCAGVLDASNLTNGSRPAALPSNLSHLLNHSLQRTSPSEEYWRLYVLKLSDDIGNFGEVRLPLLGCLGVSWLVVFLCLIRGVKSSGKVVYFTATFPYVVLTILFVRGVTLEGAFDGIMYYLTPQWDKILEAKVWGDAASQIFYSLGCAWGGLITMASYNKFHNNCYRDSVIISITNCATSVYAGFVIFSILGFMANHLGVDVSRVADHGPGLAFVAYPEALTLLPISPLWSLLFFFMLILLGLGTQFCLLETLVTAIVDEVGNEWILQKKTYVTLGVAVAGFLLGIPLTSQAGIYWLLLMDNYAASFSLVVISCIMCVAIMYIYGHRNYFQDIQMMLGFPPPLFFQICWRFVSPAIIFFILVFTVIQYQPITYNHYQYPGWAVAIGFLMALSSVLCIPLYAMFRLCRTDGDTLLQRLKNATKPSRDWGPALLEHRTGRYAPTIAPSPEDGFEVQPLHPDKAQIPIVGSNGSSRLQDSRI
Experiment: [3H] Glycine Uptake Assay (SPA) in recombinant hGlyT1b-CHO cells
Format: cell-based
Conditions: Table 1
Protocol: A. [3H] Glycine Uptake Assay
Preparation of recombinant human GlyT1b-CHO cells (hGlyT1b-CHO). The human GlyT1b CDS (GC002087, NM_006934) was cloned downstream of a CMV promoter in a bicistronic expression vector containing a hygromycin B resistance gene. CHO-K1 cells (ATCC) were transfected with the recombinant vector containing GlyT1b using Lipofectamine 2000 (Invitrogen) and cultured in Ham's/F12 media supplemented with 10% fetal bovine serum, 2 mM L-glutamine at 37° C., 5% CO2, 90% humidity. Twenty-four hours after transfection, cells were diluted and switched to media containing 0.5 mg/ml hygromycin B. Antibiotic resistant cells were obtained after 21 days of culture in the presence of hygromycin B. Clonal stable cell lines were isolated by FACS single cell deposition into 96-well plates.
Cells used were Recombinant hGlyT1b/CHO. These cells were cultured in cell culture medium (Ham's/F12 (Modified) (Mediatech, 10-080-CM), containing 10% FBS, 2 mM L-glutamine (Invitrogen 25030-149) and 0.5 mg/mL hygromycin B (Invitrogen, 10687-010)) in 175 cm^2 flasks until near confluence before use in the assay.
Cell medium in a cell culture flask containing near confluent cells was removed and 5 mL of cell stripper was added to submerge all cells on the surface of the culture flask. Cell stripper was removed immediately and the flask incubated in a 37° C. incubator for ˜5 min. Cells were shaken loose and suspended in 5 mL of PBS. After splitting cells to initiate a new flask(s), the cells remaining were collected by centrifugation, counted, and resuspended in assay buffer to a density of ˜2 million/mL. The cell suspension was kept at room temperature before use. The assays buffer was 10 mM HEPES, pH 7.4, containing 150 mM NaCl, 5 mM KCl, 1.5 mM CaCl2, 1.5 mM MgCl2, 0.45 mg/mL L-alanine (added fresh), and 1.8 mg/mL D-glucose (added fresh).
WGA PTV beads were suspended in assay buffer (2 mg/ml) containing 60 nM [^3H]Glycine (PerkinElmer (NET-004, [2-^3H]Glycine, 53.3 Ci/mmol, 1 mCi/mL)) and 20 μM unlabeled glycine and the suspension was kept at room temperature before assay.
To the wells of an OptiPlate, 2 μl DMSO containing a test compound was spotted. This was followed by addition of 98 μl of cell suspension (˜1 million/ml final). After incubating cells with compound for ˜15 min, 100 μl of the SPA (200 μg/well final) and isotope mixture (30 nM isotope with 10 μM cold glycine, final) was added to initiate the glycine uptake. At 2 h, the plate was read on a TopCount to quantify SPA counts.

Structure (SMILES)	pIC50
CN1C2CCC1([C@H](NC(=O)c1ccc(Cl)cc1Cl)c1ccccc1)CC2 (single isomer, unassigned) [Example 14, (R*)-2,4-dichloro-N((7-methy1-7-azabicyclo[2.2.1]heptan-1-yl)(phenyl)methyl)benzamide]	6.52
Cc1cccc(F)c1C(=O)NC(c1ccccc1)C12CCC(CC1)N2C (single isomer, unassigned) [Example 7, 2-fluoro-6-methyl-N-((7-methyl-7-azabicyclo[2.2.1]heptan-1-yl)(phenyl)methyl)benzamide]	7.21
CSc1ncccc1C(=O)NC(c1ccccc1)C12CCC(CC1)N2C (stereo not shown) [Example 10, N-((7-methyl-7-azabicyclo[2.2.1]heptan-1-yl)(phenyl)methyl)-2-(methylthio)nicotinamide]	6.84

Same assay, conditions: Table 2, unit from table title

Structure (SMILES)	pIC50
Cc1cccc(C)c1C(=O)NC(c1cccnc1)C12CCC(CC1)N2C (single isomer, unassigned) [Example 74]	> 8.52
Cc1cccc(C)c1C(=O)NC(c1ccccc1)C12CCC(CC1)N2CC(C)C (stereo not shown) [Example 22]	7.89
Cc1cccc(C)c1C(=O)NC(c1cccc(C(=O)N(C)C)c1)C12CCC(CC1)N2C (stereo not shown) [Example 88]	7.24
Cc1cccc(C)c1C(=O)NC(c1ccc(O)cc1)C12CCC(CC1)N2C (stereo not shown) [Example 99]	8.22
Cc1cccc(C)c1C(=O)N[C@H](c1ccccc1)C12CCC(CC1)N2C[C@H]1CCCN1 [Example 80]	6.50
Cc1cccc(C)c1C(=O)NC(c1ccc(C#N)cc1)C12CCC(CC1)N2C (stereo not shown) [Example 93]	6.65
Cc1cccc(C)c1C(=O)N[C@H](c1ccccc1)C12CCC(CC1)N2Cc1ccccn1 [Example 49]	6.81
CC(=O)NCCN1C2CCC1([C@H](NC(=O)c1c(C)cccc1C)c1ccccc1)CC2 [Example 42]	8.22
Cc1cccc(C)c1C(=O)N[C@H](c1ccccc1)C12CCC(CC1)N2Cc1ccccc1 [Example 25]	6.76
Cc1cc(C(NC(=O)c2c(C)cccc2C)C23CCC(CC2)N3)ccn1 (stereo not shown) [Example 83]	6.87
CN1C2CCC1(C(NC(=O)c1cccc(C(F)(F)F)c1Cl)c1ccccc1)CC2 (stereo not shown) [Example 20]	7.59
CSc1ncccc1C(=O)NC(c1ccccc1)C12CCC(CC1)N2C1CCC1 (stereo not shown) [Example 44]	6.61
Cc1cccc(C)c1C(=O)NC(c1cccnc1)C12CCC(CC1)N2C (stereo not shown) [Example 65]	7.51
Cc1cccc(C)c1C(=O)NC(c1cccc(C#N)c1)C12CCC(CC1)N2C (stereo not shown) [Example 79]	7.06
Cc1ccc(F)cc1C(=O)NC(c1ccccc1)C12CCC(CC1)N2C (single isomer, unassigned) [Example 64]	6.90
Cc1ccccc1C(=O)NC(c1ccccc1)C12CCC(CC1)N2C (single isomer, unassigned) [Example 59]	7.42
CCc1ccccc1C(=O)N[C@H](c1ccccc1)C12CCC(CC1)N2CCOC [Example 95]	7.17
Cc1cccc(C)c1C(=O)NC(c1cccc(F)c1)C12CCC(CC1)N2C (single isomer, unassigned) [Example 45]	6.76
Cc1cccc(Cl)c1C(=O)NC(c1ccccc1)C12CCC(CC1)N2C (stereo not shown) [Example 67]	8.22
Cc1cccc(C)c1C(=O)N[C@H](c1ccccc1)C12CCC(CC1)N2CCN1CCOCC1 [Example 71]	> 8.70
COCCCN1C2CCC1([C@H](NC(=O)c1c(C)cccc1C)c1ccccc1)CC2 [Example 28]	7.92
CCCOc1ccc(C(NC(=O)c2c(C)cccc2C)C23CCC(CC2)N3C)cc1 (stereo not shown) [Example 100]	6.65
Cc1cccc(C)c1C(=O)N[C@H](c1ccccc1)C12CCC(CC1)N2CC1CCCO1 (stereo partly shown) [Example 56]	8.40
Cc1cc(F)ccc1C(=O)NC(c1ccccc1)C12CCC(CC1)N2C (single isomer, unassigned) [Example 62]	7.32
CCCCc1cccc(C(NC(=O)c2c(C)cccc2C)C23CCC(CC2)N3C)c1 (stereo not shown) [Example 103]	6.92
